Reference: paper PMC9257522, “Machine Learning for Discovery of New ADORA Modulators” (Frontiers in Pharmacology, 2022)
“Also recorded” adds a separate entry of the source. Structures can show the parent of a compound that is named as a salt. Where two headings read alike, the source gives them in different places.

Columns and labels:
human A1AR [1] = tested on: T1, human A1AR; assay: A1AR cAMP assay, HEK293 A1AR Nomad cell line (Innoprot), agonist mode; assay type: cell-based; conditions: compounds at 10 µM, normalized to 10 µM NECA (100%) and vehicle DMSO (0%)
T1 construct: host or cells: HEK293 A1AR Nomad cell line
Text: For screening of the initial compounds predicted by machine learning models to activate A1AR receptor, we used the HEK293 A1AR Nomad cell line, which consists of HEK293 cells stably expressing human A1AR with no tag. This cell line has been designed to assay compounds or analyze their capability to modulate the A1AR. When the agonist binds to A1AR in this engineered cell line a Go protein is activated, which in turn, triggers a cellular response mediated by cAMP inhibition. This cellular response can be measured by quantifying the increase in fluorescence intensity and its cellular distribution. An agonist assay was performed for 29 compounds (predicted to be active by the machine learning model) in the human recombinant HEK293 A1AR Nomad cell line using a fluorescence-based assay. An agonist effect of the compounds was measured by quantifying the changes in the fluorescence emission cAMP Nomad biosensor, this elevation of fluorescence was analyzed using a plate reader Synergy 2 (Biotek, Winooski, VT). The error bars represent the standard deviation among the three replicate wells. The 29 compounds were tested at 10 μM using nonselective AR agonist adenosine-5′-N-ethyluronamide (NECA) at 10 μM as a reference.

human A1AR [2] = tested on: T1, human A1AR; assay: Radioligand displacement binding, [3H]DPCPX, HEK293 membranes; conditions: mean ± standard error, three independent experiments
Experimental: (§1) HEK293 cells stably expressing the human A1AR, A2AAR, A3AR were cultured in DMEM supplemented with 10% fetal bovine serum, 100 Units/ml penicillin, 100 µg/ml streptomycin, and 2 µmol/ml glutamine. To prepare cell membranes, cells were detached from culture plates by scraping into cold PBS and centrifuged at 250 g for 5 min. The pellets were resuspended in ice-cold PBS buffer (pH 7.4) and then homogenized. After homogenization and suspension, cells were centrifuged at 1,000 g for 10 min, and the pellet was discarded. The suspension was then re-centrifuged at 20,000 g for 60 min at 4°C. […] The aliquots of membrane preparations were stored at −80°C until the binding experiments. For displacement binding assays, membrane preparations (20 µg proteins/tube) were incubated at 25°C for 60 min with a final concentration of [^3H]DPCPX (0.5 nM), [^3H]ZM241385 (1.0 nM), […] [^125I]I-AB-MECA (0.1 nM) for A1AR, A2AAR, A3AR, respectively, in a mixture containing 50 µl of increasing concentrations of a test ligand in a total assay volume of 200 µl of 50 mM Tris HCl, pH 7.4, containing 10 mM MgCl2. Nonspecific binding was determined using 100 µM of XAC. The reaction was terminated by filtration with GF/B filters using a Brandel (Gaithersburg, MD) 24-channel harvester. Filters were placed in scintillation vials containing 5 ml of Hydrofluor scintillation buffer (National Diagnostics, Atlanta, GA) and counted using a Tricarb 2810TR liquid scintillation counter (PerkinElmer, Waltham, MA).

human A2AAR [3] = biological target: T2, human A2AAR (Homo sapiens, UniProt P29274); assay: cAMP assay in AR-expressing HEK293 cells (ALPHAScreen), A2AAR; assay type: cell-based
T2 construct: expressed in transfected cells; host or cells: HEK293
T2 sequence (P29274 whole entry): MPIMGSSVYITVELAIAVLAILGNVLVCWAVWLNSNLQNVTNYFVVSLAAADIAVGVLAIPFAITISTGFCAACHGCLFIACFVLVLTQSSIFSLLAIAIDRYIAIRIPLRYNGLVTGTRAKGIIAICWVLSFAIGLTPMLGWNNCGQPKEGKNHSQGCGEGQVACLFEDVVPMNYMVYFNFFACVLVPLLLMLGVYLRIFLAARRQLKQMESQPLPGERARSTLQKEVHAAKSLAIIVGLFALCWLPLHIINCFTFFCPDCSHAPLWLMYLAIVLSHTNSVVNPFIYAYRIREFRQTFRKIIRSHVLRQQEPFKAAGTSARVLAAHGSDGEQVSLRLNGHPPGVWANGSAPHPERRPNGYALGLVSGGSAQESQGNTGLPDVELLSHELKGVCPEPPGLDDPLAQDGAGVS
Experimental: (§2) HEK293 cells were grown in 96-well plates in DMEM supplemented with 10% fetal bovine serum, 100 Units/ml penicillin, 100 µg/ml streptomycin, and 2 µmol/ml glutamine. […] For A1AR and A3AR, after incubation with agonists for 20 min, forskolin (10 µM) was added and the mixture incubated for an additional 15 min. The reaction was terminated upon removal of the supernatant and addition of 100 µl Tween-20 (0.3%). Intracellular cAMP levels were measured with an ALPHAScreen cAMP assay kit as instructed by the manufacturer (PerkinElmer).

A1AR [4] = tested on: T3, A1AR; assay: cAMP assay in AR-expressing HEK293 cells (ALPHAScreen), A1AR; assay type: cell-based, human; conditions: A1AR-expressing HEK cells; cAMP inhibition, Cl-ENBA reference full agonist
T3 construct: expressed in transfected cells; host or cells: HEK293
Experimental: as §2

human A2BAR = assay: Radioligand displacement binding, [3H]DPCPX
human A3AR [5] = biological target: T4, human A3AR (Homo sapiens, UniProt P0DMS8); assay: Radioligand displacement binding, [125I]I-AB-MECA, HEK293 membranes; conditions: for Ki, A3 ([125I]I-AB-MECA) / Ki: mean ± standard error, three independent experiments; for Ki: read-out: Ki, A3 ([125I]I-AB-MECA)
T4 sequence (P0DMS8 1-318): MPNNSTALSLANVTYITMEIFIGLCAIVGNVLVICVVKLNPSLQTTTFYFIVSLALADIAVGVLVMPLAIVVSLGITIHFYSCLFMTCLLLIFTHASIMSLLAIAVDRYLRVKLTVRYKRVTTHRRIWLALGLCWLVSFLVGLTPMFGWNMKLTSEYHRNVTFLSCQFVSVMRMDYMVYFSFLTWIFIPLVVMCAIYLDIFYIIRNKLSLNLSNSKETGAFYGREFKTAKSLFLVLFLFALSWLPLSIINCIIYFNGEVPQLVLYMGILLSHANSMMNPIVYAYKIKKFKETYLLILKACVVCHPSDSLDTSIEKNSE
Experimental: as §1

human A2AAR [6] = biological target: T2, human A2AAR; assay: Radioligand displacement binding, [3H]ZM241385, HEK293 membranes; conditions: mean ± standard error, three independent experiments; for Ki: read-out: Ki, A2A ([3H]ZM241385)
Experimental: as §1

A3AR = conditions: background property of the receptor, no reference given; listed as ADO; cited from earlier work
A2BAR = tested on: T5, A2BAR; conditions: background property of the receptor, no reference given, cited from earlier work
T5 construct: expressed in transfected cells; host or cells: HEK293

A1AR [7] = tested on: T6, A1AR; assay: A1AR-bla U2OS agonist screen (beta-arrestin/TEV, beta-lactamase reporter; Thermo Fisher); assay type: cell-based
T6 construct: host or cells: A1AR-bla U2OS
Experimental: A1AR-bla U2OS cells are thawed and resuspended in Assay Media (Freestyle media) to a concentration of 312,500 cells/ml. 32 μl of cell suspension (10,000 cells) was added to each well of a 384-well TC-Treated assay plate. Cells in Assay Media were incubated for 16–24 h in the plate at 37°C/5% CO2 in a humidified incubator. 4 μl aliquots of a 10X serial dilution of NECA (control agonist starting concentration, 500 nM) or compounds were added to appropriate wells of the plate. 4 μl of Assay Media was added to all wells to bring the final assay volume to 40 μl. The plate was incubated for 5 h at 37°C/5% CO2 in a humidified incubator. 8 μl of 1 μM substrate + Solution D Loading Solution was added to each well and the plate was incubated for 2 h at room temperature. The plate was read on a fluorescence plate reader.
This parental cell line stably expresses a beta‐arrestin/TEV protease fusion protein and the beta‐lactamase reporter gene under the control of a UAS response element. […] We also used a secondary assay PathHunter® β-Arrestin assay, which monitors the activation of A1AR in a homogenous, non-imaging assay format using a technology developed by DiscoverX called Enzyme Fragment Complementation (EFC) with β-galactosidase (β-Gal) as the functional reporter.

human A3AR [8] = biological target: T4, human A3AR; assay: cAMP assay in AR-expressing HEK293 cells (ALPHAScreen), A3AR; assay type: cell-based; conditions: for cAMP, A3AR agonist activity: A3AR-expressing cells, MRS5698 reference full agonist
Experimental: as §2

A2AAR = conditions: read-out: Ki, A2AAR; A2AAR antagonist; quoted without method, no reference given; cited from earlier work

Structure (SMILES) | normalized activity with respect to the positive control (human A1AR [1]) [%] | Inhibition of specific binding, % inhibition at 100 µM, A1 ([3H]DPCPX) (human A1AR [2]) [%] | cAMP, A2AAR activity (stimulation of cAMP) (human A2AAR [3]; A2AAR-expressing HEK293 cells) | cAMP, A1AR agonist activity (A1AR [4]) | Ki, A3 ([125I]I-AB-MECA) (human A3AR [5]) | Ki (human A3AR [5]) [µM] | Ki, A2A ([3H]ZM241385) (human A2AAR [6]) | Ki (human A2AAR [6]) [µM] | further results
Cc1ccc(S(=O)(=O)/C=C/C#N)cc1 [BAY 11-7082, (E)-3-(4-methylphenylsulfonyl)-2-propenenitrile] | 95.74 |  |  |  |  |  |  |  | 
Cc1nc(-c2ccc(OCC(C)C)c(C#N)c2)sc1C(=O)O [Febuxostat] | 94.53 | 29.8 ± 5.2 | Not active | Not active | in the µM range | 67.3 ± 45.7 | in the µM range | 22.9 ± 4.3 | cAMP, A2AAR activity (stimulation of cAMP) (human A2AAR [3]; A2AAR-expressing HEK293 cells, listed as febuxostat): not; Inhibition of specific binding, % inhibition at 100 µM, A2B ([3H]DPCPX) (human A2BAR): <10%
Nc1ncnc2c1ncn2[C@@H]1O[C@H](CO)[C@@H](O)[C@H]1O [Adenosine] |  |  |  |  |  |  |  |  | Adenosine affinity, A3AR (A3AR): relatively lower affinity; Adenosine affinity, A2BAR (A2BAR): Low affinity; Adenosine affinity, A2BAR (A2BAR; listed as ADO): relatively lower affinity
Fc1ccc([C@@H]2CCNC[C@H]2COc2ccc3c(c2)OCO3)cc1 [Paroxetine, Paroxetine Hydrochloride] | 68.0 | 9.1 ± 3.9 | weak activation; also recorded: Active | Not active | in the µM range | 14.5 ± 9.7 | in the µM range | 40.4 ± 9.8 | activation of A1AR, A1AR-bla U2OS cells (A1AR [7]): no activation; Emax (human A2AAR [3]; A2AAR-expressing HEK293 cells, reference full agonist = 100% stimulation): 69%; EC50 (human A2AAR [3]; HEK293 cells expressing human A2AAR, absence of antagonist, read-out: EC50, stimulation of cAMP, A2AAR): 14 µM; agonist activity at the human A3AR at 100 µM (human A3AR [8]; 100 µM): did not show any agonist activity; cAMP, A3AR agonist activity (human A3AR [8]): no activation; also recorded: Not active; cAMP, A3AR agonist activity (human A3AR [8]; listed as paroxetine): Lack of agonist effect; Kd (human A3AR [5]; as worded in the Discussion): 14.5 ± 9.7 µM
CCn1c(=O)c2c(nc(/C=C/c3ccc(OC)c(OC)c3)n2C)n(CC)c1=O [istradefylline, Istradefylline] |  |  |  |  |  |  |  |  | Ki (A2AAR): 0.0022 µM
CCN(CC)CCOc1ccc2c(c1)C(=O)c1cc(OCCN(CC)CC)ccc1-2 [Tilorone Hydrochloride] | 55.9 |  |  |  |  |  |  |  | 
